Test results as given in Sander's compilation of Henry's law constants (doi:10.1016/j.atmosenv.2006.04.009).

Test: Henry solubility constant Hcp at 298.15 K (mol/(m3 Pa))
Conditions: reference: Cetin et al. (2006)

Point of comparison: ClC1=C(Cl)C2(Cl)C3C(Cl)C=CC3C1(Cl)C2(Cl)Cl (stereo not given) [heptachlor], “Henry solubility constant Hcp” value 0.019. Against it:
- Clc1ccc(C(c2ccc(Cl)cc2)C(Cl)(Cl)Cl)cc1 [1,1,1-trichloro-2,2-bis-(4-chlorophenyl)-ethane] — higher, 0.9
- Clc1ccc(C(c2ccc(Cl)cc2)C(Cl)Cl)cc1 [1,1-dichloro-2,2-bis-(4-chlorophenyl)-ethane] — higher, 0.91
- ClC(Cl)=C(c1ccc(Cl)cc1)c1ccc(Cl)cc1 [1,1-dichloro-2,2-bis-(4-chlorophenyl)-ethene] — higher, 0.16
- ClC1=C(Cl)[C@]2(Cl)[C@H]3[C@H]([C@@H]4C=C[C@H]3C4)[C@@]1(Cl)C2(Cl)Cl [aldrin] — higher, 0.022
- CCOP(=S)(OCC)Oc1nc(Cl)c(Cl)cc1Cl [chlorpyrifos] — higher, 0.22
- ClC1=C(Cl)[C@]2(Cl)[C@@H]3[C@@H](Cl)[C@@H](Cl)C[C@@H]3[C@@]1(Cl)C2(Cl)Cl [cis-chlordane] — higher, 0.15
- ClC1=C(Cl)C2(Cl)[C@H]3C(Cl)C(Cl)C(Cl)[C@H]3C1(Cl)C2(Cl)Cl (stereo partly drawn) [cis-nonachlor] — higher, 1.4
- ClC1=C(Cl)[C@]2(Cl)[C@@H]3[C@@H]4C[C@@H]([C@H]5O[C@@H]45)[C@@H]3[C@@]1(Cl)C2(Cl)Cl [dieldrin] — higher, 0.92
- ClC1=C(Cl)[C@]2(Cl)[C@@H]3[C@H]4C[C@H]([C@@H]5O[C@H]45)[C@@H]3[C@@]1(Cl)C2(Cl)Cl [endrin] — higher, 1.8
- ClC1=C(Cl)C2(Cl)C3C4OC4C(Cl)C3C1(Cl)C2(Cl)Cl (stereo not given) [heptachlorepoxide] — higher, 0.5
- ClC1=C(Cl)[C@]2(Cl)[C@H]3[C@H](Cl)[C@@H](Cl)C[C@H]3[C@@]1(Cl)C2(Cl)Cl [trans-chlordane] — higher, 0.063
- ClC1=C(Cl)C2(Cl)C3C(Cl)C(Cl)C(Cl)C3C1(Cl)C2(Cl)Cl (stereo not drawn) [trans-nonachlor] — higher, 0.088
- ClC1C(Cl)C(Cl)C(Cl)C(Cl)C1Cl (stereo not drawn) [α-1,2,3,4,5,6-hexachlorocyclohexane] — higher, 3
- ClC1C(Cl)C(Cl)C(Cl)C(Cl)C1Cl (stereo not given) [γ-1,2,3,4,5,6-hexachlorocyclohexane] — higher, 3.9
